Reference: US20150274719A1, “AMINO-SUBSTITUTED IMIDAZO[1,2-A]PYRIDINECARBOXAMIDES AND THEIR USE” (BAYER PHARMA AKTIENGESELLSCHAFT, priority 2012, published 2015)
Counter-ions that a name gives are not always drawn.

Biological target: T1, recombinant guanylate cyclase reporter cell line (Rattus norvegicus, UniProt P19686+P20595)
T1 construct: expressed in transfected cells; host or cells: recombinant reporter cell line
T1 sequence (P19686 1-690): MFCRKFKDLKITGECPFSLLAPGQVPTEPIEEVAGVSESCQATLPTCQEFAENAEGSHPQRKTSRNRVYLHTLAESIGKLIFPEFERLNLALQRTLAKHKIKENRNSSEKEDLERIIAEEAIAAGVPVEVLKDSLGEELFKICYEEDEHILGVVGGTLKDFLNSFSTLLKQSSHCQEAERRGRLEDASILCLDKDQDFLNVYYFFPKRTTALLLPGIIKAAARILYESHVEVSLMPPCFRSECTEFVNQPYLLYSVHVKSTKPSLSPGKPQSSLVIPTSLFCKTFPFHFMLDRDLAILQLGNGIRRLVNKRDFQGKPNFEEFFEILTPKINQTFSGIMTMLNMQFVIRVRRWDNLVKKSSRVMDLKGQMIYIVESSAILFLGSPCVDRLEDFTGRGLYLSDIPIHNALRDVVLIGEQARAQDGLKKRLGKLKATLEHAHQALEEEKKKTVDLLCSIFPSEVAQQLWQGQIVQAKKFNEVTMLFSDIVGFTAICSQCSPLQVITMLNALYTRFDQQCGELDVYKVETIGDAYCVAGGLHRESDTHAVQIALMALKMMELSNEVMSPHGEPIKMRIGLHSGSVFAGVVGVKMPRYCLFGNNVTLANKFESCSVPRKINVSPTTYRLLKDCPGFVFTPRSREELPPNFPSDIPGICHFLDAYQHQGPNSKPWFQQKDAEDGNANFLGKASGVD
T1 sequence (P20595 1-619): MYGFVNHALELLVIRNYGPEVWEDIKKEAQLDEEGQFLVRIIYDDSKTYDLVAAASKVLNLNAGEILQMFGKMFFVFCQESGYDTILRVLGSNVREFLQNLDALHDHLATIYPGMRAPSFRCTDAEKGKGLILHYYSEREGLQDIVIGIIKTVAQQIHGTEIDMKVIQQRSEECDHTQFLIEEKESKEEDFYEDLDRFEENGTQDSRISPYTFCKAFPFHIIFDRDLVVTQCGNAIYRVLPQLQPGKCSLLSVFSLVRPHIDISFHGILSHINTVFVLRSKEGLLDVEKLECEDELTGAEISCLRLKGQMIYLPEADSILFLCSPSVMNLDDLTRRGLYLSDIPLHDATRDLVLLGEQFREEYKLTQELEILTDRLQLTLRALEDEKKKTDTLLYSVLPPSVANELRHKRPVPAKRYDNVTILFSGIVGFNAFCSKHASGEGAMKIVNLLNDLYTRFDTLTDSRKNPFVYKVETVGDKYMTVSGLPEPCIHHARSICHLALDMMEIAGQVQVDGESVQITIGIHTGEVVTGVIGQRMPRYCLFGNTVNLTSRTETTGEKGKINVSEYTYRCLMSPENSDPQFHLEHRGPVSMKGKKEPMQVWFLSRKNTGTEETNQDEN
Experiment: Action on recombinant guanylate cyclase reporter cell line
Assay type: cell-based
Details: in some cases mean values from individual determinations
How it was run: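 Each compound is applied to a cell line engineered with a reporter for recombinant guanylate cyclase. The minimal effective concentration is then noted, in part as a mean across separate determinations.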

Row | SMILES | MEC (minimal effective concentration) [µM]
1 | Cc1nc2c(OCc3c(F)cccc3F)cccn2c1C(=O)NCC(N)C(F)(F)F (single isomer, unassigned) [Example 208, ent-N-(2-Amino-3,3,3-trifluoropropyl)-8-[(2,6-difluorobenzyl)oxy]-2-methylimidazo[1,2-a]-pyridine-3-carboxamide] | 0.30
2 | Cc1nc2c(OCc3c(F)cccc3F)cccn2c1C(=O)NCC(N)C(F)(F)F (single isomer, unassigned) [Example 209, ent-N-(2-Amino-3,3,3-trifluoropropyl)-8-[(2,6-difluorobenzyl)oxy]-2-methylimidazo[1,2-a]-pyridine-3-carboxamide] | 0.30
3 | COCC(CN)NC(=O)c1c(C)nc2c(OCc3c(F)cccc3F)cc(C)cn12 (single isomer, unassigned) [Example 210, ent-N-(1-amino-3-methoxypropan-2-yl)-8-[(2,6-difluorobenzyl)oxy]-2,6-dimethylimidazo[1,2-a]-pyridine-3-carboxamide trifluoroacetate] | 0.30
4 | COCC(C)(N)CNC(=O)c1c(C)nc2c(OCc3c(F)cccc3F)cccn12 (single isomer, unassigned) [Example 214, ent-N-(2-Amino-3-methoxy-2-methylpropyl)-8-[(2,6-difluorobenzyl)oxy]-2-methylimidazo[1,2-a]-pyridine-3-carboxamide] | 0.30
5 | COCC(C)(N)CNC(=O)c1c(C)nc2c(OCc3c(F)cccc3F)cccn12 (single isomer, unassigned) [Example 215, ent-N-(2-Amino-3-methoxy-2-methylpropyl)-8-[(2,6-difluorobenzyl)oxy]-2-methylimidazo[1,2-a]-pyridine-3-carboxamide] | 1.00
6 | Cc1cc(OCc2c(F)cccc2F)c2nc(C)c(C(=O)NCC(N)C(C)C)n2c1 (single isomer, unassigned) [Example 224, ent-N-(2-Amino-3-methylbutyl)-8-[(2,6-difluorobenzyl)oxy]-2,6-dimethylimidazo[1,2-a]pyridine-3-carboxamide] | 0.30
7 | Cc1nc2c(OCc3c(F)cccc3F)cccn2c1C(=O)NCC(N)C(C)C (single isomer, unassigned) [Example 228, ent-N-(2-Amino-3-methylbutyl)-8-[(2,6-difluorobenzyl)oxy]-2-methylimidazo[1,2-a]pyridine-3-carboxamide] | 1.00
8 | Cc1nc2c(OCc3c(F)cccc3F)cccn2c1C(=O)NCC(N)C(C)C (single isomer, unassigned) [Example 229, ent-N-(2-Amino-3-methylbutyl)-8-[(2,6-difluorobenzyl)oxy]-2-methylimidazo[1,2-a]pyridine-3-carboxamide] | 1.00
9 | Cc1nc2c(OCc3c(F)cccc3F)cccn2c1C(=O)NCC(N)C(F)(F)C(F)F (single isomer, unassigned) [Example 231, ent-N-(2-Amino-3,3,4,4-tetrafluorobutyl)-8-[(2,6-difluorobenzyl)oxy]-2-methylimidazo[1,2-a]-pyridine-3-carboxamide] | 0.30
10 | CCCC(C)(N)CNC(=O)c1c(C)nc2c(OCc3c(F)cccc3F)cc(C)cn12 (single isomer, unassigned) [Example 233, ent-N-(2-Amino-2-methylpentyl)-8-[(2,6-difluorobenzyl)oxy]-2,6-dimethylimidazo[1,2-a]pyridine-3-carboxamide] | 0.10
11 | CCCC(C)(N)CNC(=O)c1c(C)nc2c(OCc3c(F)cccc3F)cc(C)cn12 (single isomer, unassigned) [Example 234, ent-N-(2-Amino-2-methylpentyl)-8-[(2,6-difluorobenzyl)oxy]-2,6-dimethylimidazo[1,2-a]pyridine-3-carboxamide] | 0.03
12 | Cc1nc2c(OCc3c(F)cccc3F)cc(Cl)cn2c1C(=O)NCC(C)(N)C(F)(F)F (single isomer, unassigned) [Example 237, ent-N-(2-Amino-3,3,3-trifluoro-2-methylpropyl)-6-chloro-8-[(2,6-difluorobenzyl)oxy]-2-methyl-imidazo[1,2-a]pyridine-3-carboxamide] | 0.30
13 | Cc1nc2c(OCc3c(F)cccc3F)cc(Cl)cn2c1C(=O)NCC(C)(N)C(F)(F)F (single isomer, unassigned) [Example 238, ent-N-(2-Amino-3,3,3-trifluoro-2-methylpropyl)-6-chloro-8-[(2,6-difluorobenzyl)oxy]-2-methyl-imidazo[1,2-a]pyridine-3-carboxamide] | 1.00
14 | Cc1cc(OCc2c(F)cccc2F)c2nc(C)c(C(=O)NCC(C)(N)C(F)(F)F)n2c1 (single isomer, unassigned) [Example 240, ent-N-(2-Amino-3,3,3-trifluoro-2-methylpropyl)-8-[(2,6-difluorobenzyl)oxy]-2,6-dimethylimidazo-[1,2-a]pyridine-3-carboxamide] | 0.30
15 | Cc1cc(OCc2c(F)cccc2F)c2nc(C)c(C(=O)NCC(C)(N)C(F)(F)F)n2c1 (single isomer, unassigned) [Example 241, ent-N-(2-Amino-3,3,3-trifluoro-2-methylpropyl)-8-[(2,6-difluorobenzyl)oxy]-2,6-dimethylimidazo-[1,2-a]pyridine-3-carboxamide] | 0.30

Second part, the molecule after the results:

Row | MEC (minimal effective concentration) [µM] | SMILES
16 | 0.04 | CC[C@](C)(N)CNC(=O)c1c(C)nc2c(OCc3c(F)cccc3F)cc(C)cn12 (single isomer, unassigned) [Example 200]
17 | 0.10 | Cc1nc2c(OCc3c(F)cccc3F)cccn2c1C(=O)NCC(C)(N)CC(C)C (single isomer, unassigned) [Example 203, ent-N-(2-Amino-2,4-dimethylpentyl)-8-[(2,6-difluorobenzyl)oxy]-2-methylimidazo[1,2-a]pyridine-3-carboxamide]
18 | 1.00 | Cc1nc2c(OCc3c(F)cccc3F)cccn2c1C(=O)NCC(C)(N)CC(C)C (single isomer, unassigned) [Example 204, ent-N-(2-Amino-2,4-dimethylpentyl)-8-[(2,6-difluorobenzyl)oxy]-2-methylimidazo[1,2-a]pyridine-3-carboxamide]
19 | 1.00 | Cc1nc2c(OCc3c(F)cccc3F)cc(Cl)cn2c1C(=O)NCC(N)C(C)C (single isomer, unassigned) [Example 212, ent-N-(2-Amino-3-methylbutyl)-6-chloro-8-[(2,6-difluorobenzyl)oxy]-2-methylimidazo[1,2-a]-pyridine-3-carboxamide]
20 | 0.30 | Cc1cc(OCc2c(F)cccc2F)c2nc(C)c(C(=O)NCC(C)(N)CC(C)C)n2c1 (single isomer, unassigned) [Example 219, ent-N-(2-Amino-2,4-dimethylpentyl)-8-[(2,6-difluorobenzyl)oxy]-2,6-dimethylimidazo[1,2-a]-pyridine-3-carboxamide]
21 | 0.10 | Cc1cc(OCc2c(F)cccc2F)c2nc(C)c(C(=O)NCC(C)(N)CC(C)C)n2c1 (single isomer, unassigned) [Example 220, ent-N-(2-Amino-2,4-dimethylpentyl)-8-[(2,6-difluorobenzyl)oxy]-2,6-dimethylimidazo[1,2-a]-pyridine-3-carboxamide]
22 | 0.10 | Cc1nc2c(OCc3c(F)cccc3F)cc(Cl)cn2c1C(=O)NCC(C)(N)CC(C)C (single isomer, unassigned) [Example 226, ent-N-(2-Amino-2,4-dimethylpentyl)-6-chloro-8-[(2,6-difluorobenzyl)oxy]-2-methylimidazo[1,2-a]pyridine-3-carboxamide]
23 | 0.30 | Cc1nc2c(OCc3c(F)cccc3F)cc(Cl)cn2c1C(=O)NCC(C)(N)CC(C)C (single isomer, unassigned) [Example 227, ent-N-(2-Amino-2,4-dimethylpentyl)-6-chloro-8-[(2,6-difluorobenzyl)oxy]-2-methylimidazo[1,2-a]pyridine-3-carboxamide]
